Patent publication US20250154138A1, “Small Molecule IL-17A Modulators” (BeiGene, Ltd., priority 2022, published 2025)

How the values were obtained:
[1] = system: IL-17-induced GROα secretion from HT-29 cells; assay: GROα release assay in human colorectal adenocarcinoma epithelial cell (HT-29, ELISA); assay type: cell-based; conditions: Homo sapiens, HT-29, 48 h, 10 ng/mL IL-17A, highest concentration 10 μM, read-out: Cellular assay HT29 cell/CXCL1 IC50
Outline: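 HT-29 cells were exposed 48 h at 37°C to IL-17A (final 10 ng/mL) preincubated 15 min with compound (4-fold dilutions, top 10 μM). Secreted GROα was quantified by ELISA against a standard curve, and IC50 obtained by four-parameter fitting.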

[2] = target: human IL-17A / human IL-17RA (Homo sapiens (Human), UniProt Q16552); assay: Human IL-17A biochemical assay (HTRF, blocking of IL-17A binding to IL-17RA); conditions: 0.4 nM IL-17A, 0.3 nM IL-17RA, max compound concentration 10 uM
Chain of human IL-17A / human IL-17RA (Q16552 24-155): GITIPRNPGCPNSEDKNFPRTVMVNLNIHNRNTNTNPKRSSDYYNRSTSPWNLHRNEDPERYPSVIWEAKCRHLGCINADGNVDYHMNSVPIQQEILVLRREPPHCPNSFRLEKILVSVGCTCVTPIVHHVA
Outline: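 Inhibition of IL-17A binding to IL-17RA is measured by HTRF using 0.4 nM IL-17A, 0.3 nM IL-17RA and a 3 h compound pre-incubation at room temperature, pH 7.5. IC50 values come from four-parameter logistic fitting.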

SMILES: Cc1nonc1C(=O)N[C@H](C(=O)Nc1ccc2c(c1)CC(N1C[C@@H](C(F)(F)F)NC1=O)C2)C1CCC(F)(F)CC1 (stereo partly drawn) [Example 178, N-((1S)-1-(4,4-difluorocyclohexyl)-2-oxo-2-((2-((S)-2-oxo-4-(trifluoromethyl)imidazolidin-1-yl)-2,3-dihydro-1H-inden-5-yl)amino)ethyl)-4-methyl-1,2,5-oxadiazole-3-carboxamide]
- IC50 [1]: 2210 nM
- IC50 [2]: 3650 nM

SMILES: CNC(=O)C1(N2CC(C)(C(F)(F)F)CNC2=O)Cc2ccc(NC(=O)[C@@H](NC(=O)c3ccnn3C)C3CCCCC3)cc2C1 (stereo partly drawn) [Example 179, N-((1S)-1-cyclohexyl-2-((2-(5-methyl-2-oxo-5-(trifluoromethyl)tetrahydropyrimidin-1(2H)-yl)-2-(methylcarbamoyl)-2,3-dihydro-1H-inden-5-yl)amino)-2-oxoethyl)-1-methyl-1H-pyrazole-5-carboxamide]
- IC50 [1]: 51.6 nM
- IC50 [2]: 10.9 nM

SMILES: CNC(=O)C1(N2CC3(CC3)CNC2=O)Cc2ccc(NC(=O)C(NC(=O)c3nonc3C)C3CCC(C(F)(F)F)CC3)cc2C1 (centres unmarked) [Example 181, 4-methyl-N-(2-((2-(methylcarbamoyl)-2-(6-oxo-5,7-diazaspiro[2.5]octan-5-yl)-2,3-dihydro-1H-inden-5-yl)amino)-2-oxo-1-(4-(trifluoromethyl)cyclohexyl)ethyl)-1,2,5-oxadiazole-3-carboxamide]
- IC50 [1]: 154 nM
- IC50 [2]: 193 nM

SMILES: Cn1nccc1C(=O)N[C@H](C(=O)Nc1ccc2c(c1)CC(C(=O)NC13CC(C1)C3)(N1CC3(CC3)CNC1=O)C2)C1CCCCC1 (stereo partly drawn) [Example 182, N-((1S)-2-((2-(bicyclo[1.1.1]pentan-1-ylcarbamoyl)-2-(6-oxo-5,7-diazaspiro[2.5]octan-5-yl)-2,3-dihydro-1H-inden-5-yl)amino)-1-cyclohexyl-2-oxoethyl)-1-methyl-1H-pyrazole-5-carboxamide]
- IC50 [1]: 52.9 nM
- IC50 [2]: 26.9 nM

SMILES: Cc1nonc1C(=O)N[C@H](C(=O)Nc1ccc2c(c1)CC(N1C[C@@H](C(F)(F)F)NC1=O)C2)C(C1CC1)C1CC1 (stereo partly drawn) [Example 183, N-((2S)-1,1-dicyclopropyl-3-oxo-3-((2-((S)-2-oxo-4-(trifluoromethyl)imidazolidin-1-yl)-2,3-dihydro-1H-inden-5-yl)amino)propan-2-yl)-4-methyl-1,2,5-oxadiazole-3-carboxamide]
- IC50 [1]: 370 nM
- IC50 [2]: 768 nM

SMILES: Cc1nonc1C(=O)N[C@H](C(=O)Nc1ccc2c(c1)CC(c1nc3ccccc3[nH]1)(N1CC3(CC3)CNC1=O)C2)C1CCC(F)(F)CC1 (stereo partly drawn) [Example 184, N-((1S)-2-((2-(1H-benzo[d]imidazol-2-yl)-2-(6-oxo-5,7-diazaspiro[2.5]octan-5-yl)-2,3-dihydro-1H-inden-5-yl)amino)-1-(4,4-difluorocyclohexyl)-2-oxoethyl)-4-methyl-1,2,5-oxadiazole-3-carboxamide]
- IC50 [1]: 57.3 nM
- IC50 [2]: 151 nM

SMILES: Cc1nonc1C(=O)N[C@H](C(=O)Nc1ccc2c(c1)CC(C(=O)NCC(C)C1CCCCC1)(N1CC3(CC3)CNC1=O)C2)C1CCC(F)(F)CC1 (stereo partly drawn) [Example 185, N-((1S)-2-((2-((2-cyclohexylpropyl)carbamoyl)-2-(6-oxo-5,7-diazaspiro[2.5]octan-5-yl)-2,3-dihydro-1H-inden-5-yl)amino)-1-(4,4-difluorocyclohexyl)-2-oxoethyl)-4-methyl-1,2,5-oxadiazole-3-carboxamide]
- IC50 [1]: 275 nM
- IC50 [2]: 119 nM

SMILES: CNC(=O)C1(N2C[C@@H](C(C)C)NC2=O)Cc2ccc(NC(=O)C(NC(=O)c3ccnn3C)C3CCc4cc(Cl)ccc4C3)cc2C1 (stereo partly drawn) [Example 186, N-(1-(6-chloro-1,2,3,4-tetrahydronaphthalen-2-yl)-2-((2-((R)-4-isopropyl-2-oxoimidazolidin-1-yl)-2-(methylcarbamoyl)-2,3-dihydro-1H-inden-5-yl)amino)-2-oxoethyl)-1-methyl-1H-pyrazole-5-carboxamide]
- IC50 [1]: 15.1 nM
- IC50 [2]: 6.3 nM

SMILES: Cc1nonc1C(=O)N[C@H](C(=O)Nc1ccc2c(c1)CC(c1nc3cccc(F)c3[nH]1)(N1CC3(CC3)CNC1=O)C2)C1CCC(F)(F)CC1 (stereo partly drawn) [Example 187, N-((1S)-1-(4,4-difluorocyclohexyl)-2-((2-(7-fluoro-1H-benzo[d]imidazol-2-yl)-2-(6-oxo-5,7-diazaspiro[2.5]octan-5-yl)-2,3-dihydro-1H-inden-5-yl)amino)-2-oxoethyl)-4-methyl-1,2,5-oxadiazole-3-carboxamide]
- IC50 [1]: 246 nM
- IC50 [2]: 249 nM

SMILES: Cc1nonc1C(=O)N[C@H](C(=O)Nc1ccc2c(c1)CC(C(=O)O)(N1CC3(CC3)CNC1=O)C2)C1CCC(F)(F)CC1 (stereo partly drawn) [Example 188, 5-((S)-2-(4,4-difluorocyclohexyl)-2-(4-methyl-1,2,5-oxadiazole-3-carboxamido)acetamido)-2-(6-oxo-5,7-diazaspiro[2.5]octan-5-yl)-2,3-dihydro-1H-indene-2-carboxylic acid]
- IC50 [1]: 450 nM
- IC50 [2]: 44.9 nM

SMILES: Cn1nccc1C(=O)N[C@H](C(=O)Nc1ccc2c(c1)CC(C(=O)O)(N1CC3(CC3)CNC1=O)C2)C1CCCCC1 (stereo partly drawn) [Example 189, 5-((S)-2-cyclohexyl-2-(1-methyl-1H-pyrazole-5-carboxamido)acetamido)-2-(6-oxo-5,7-diazaspiro[2.5]octan-5-yl)-2,3-dihydro-1H-indene-2-carboxylic acid]
- IC50 [1]: 124 nM
- IC50 [2]: 15.3 nM

SMILES: Cc1nonc1C(=O)N[C@H](C(=O)Nc1ccc2c(c1)CC(C(=O)NC1CCC(F)(F)C1)(N1CC3(CC3)CNC1=O)C2)C1CCC(F)(F)CC1 (stereo partly drawn) [Example 190, N-((1S)-1-(4,4-difluorocyclohexyl)-2-((2-((3,3-difluorocyclopentyl)carbamoyl)-2-(6-oxo-5,7-diazaspiro[2.5]octan-5-yl)-2,3-dihydro-1H-inden-5-yl)amino)-2-oxoethyl)-4-methyl-1,2,5-oxadiazole-3-carboxamide]
- IC50 [1]: 139 nM
- IC50 [2]: 87.1 nM

SMILES: Cc1nonc1C(=O)N[C@H](C(=O)Nc1ccc2c(c1)CC(C(=O)NC1CCC(F)(F)CC1)(N1CC3(CC3)CNC1=O)C2)C1CCC(F)(F)CC1 (stereo partly drawn) [Example 191, N-((1S)-1-(4,4-difluorocyclohexyl)-2-((2-((4,4-difluorocyclohexyl)carbamoyl)-2-(6-oxo-5,7-diazaspiro[2.5]octan-5-yl)-2,3-dihydro-1H-inden-5-yl)amino)-2-oxoethyl)-4-methyl-1,2,5-oxadiazole-3-carboxamide]
- IC50 [1]: 168 nM
- IC50 [2]: 76.9 nM

SMILES: Cc1nonc1C(=O)N[C@H](C(=O)Nc1ccc2c(c1)CC(c1nc3cccc(C(F)(F)F)c3[nH]1)(N1CC3(CC3)CNC1=O)C2)C1CCC(F)(F)CC1 (stereo partly drawn) [Example 192, N-((1S)-1-(4,4-difluorocyclohexyl)-2-oxo-2-((2-(6-oxo-5,7-diazaspiro[2.5]octan-5-yl)-2-(7-(trifluoromethyl)-1H-benzo[d]imidazol-2-yl)-2,3-dihydro-1H-inden-5-yl)amino)ethyl)-4-methyl-1,2,5-oxadiazole-3-carboxamide]
- IC50 [1]: 1240 nM
- IC50 [2]: 1660 nM

SMILES: Cn1nccc1C(=O)N[C@H](C(=O)Nc1ccc2c(c1)CC(C(=O)C(F)(F)F)(N1CC3(CC3)CNC1=O)C2)C1CCCCC1 (stereo partly drawn) [Example 193, N-((1S)-1-cyclohexyl-2-oxo-2-((2-(6-oxo-5,7-diazaspiro[2.5]octan-5-yl)-2-(2,2,2-trifluoroacetyl)-2,3-dihydro-1H-inden-5-yl)amino)ethyl)-1-methyl-1H-pyrazole-5-carboxamide]
- IC50 [1]: 140 nM
- IC50 [2]: 50.7 nM

SMILES: Cn1nccc1C(=O)N[C@H](C(=O)Nc1ccc2c(c1)CC(C(O)C(F)(F)F)(N1CC3(CC3)CNC1=O)C2)C1CCCCC1 (stereo partly drawn) [Example 194, N-((1S)-1-cyclohexyl-2-oxo-2-((2-(6-oxo-5,7-diazaspiro[2.5]octan-5-yl)-2-(2,2,2-trifluoro-1-hydroxyethyl)-2,3-dihydro-1H-inden-5-yl)amino)ethyl)-1-methyl-1H-pyrazole-5-carboxamide]
- IC50 [1]: 21 nM
- IC50 [2]: 33.8 nM

SMILES: CC(C)n1nccc1C(=O)N[C@H](C(=O)Nc1ccc2c(c1)CC(N1C[C@@H](C(F)(F)F)NC1=O)C2)C1CCCCC1 (stereo partly drawn) [Example 195, N-((1S)-1-cyclohexyl-2-oxo-2-((2-((S)-2-oxo-4-(trifluoromethyl)imidazolidin-1-yl)-2,3-dihydro-1H-inden-5-yl)amino)ethyl)-1-isopropyl-1H-pyrazole-5-carboxamide]
- IC50 [1]: 383 nM
- IC50 [2]: 128 nM

SMILES: CNC(=O)C1(N2C[C@@H](C(C)C)NC2=O)Cc2ccc(NC(=O)C(NC(=O)c3ccnn3C)C3CCc4ccc(Cl)cc4C3)cc2C1 (stereo partly drawn) [Example 196, N-(1-(7-chloro-1,2,3,4-tetrahydronaphthalen-2-yl)-2-((2-((R)-4-isopropyl-2-oxoimidazolidin-1-yl)-2-(methylcarbamoyl)-2,3-dihydro-1H-inden-5-yl)amino)-2-oxoethyl)-1-methyl-1H-pyrazole-5-carboxamide]
- IC50 [1]: 58.5 nM
- IC50 [2]: 19.8 nM

SMILES: Cn1nccc1C(=O)N[C@H](C(=O)Nc1ccc2c(c1)CC(N1C[C@@H](C(F)(F)F)NC1=O)C2)C(C1CC1)C1CC1 (stereo partly drawn) [Example 197, N-((2S)-1,1-dicyclopropyl-3-oxo-3-((2-((S)-2-oxo-4-(trifluoromethyl)imidazolidin-1-yl)-2,3-dihydro-1H-inden-5-yl)amino)propan-2-yl)-1-methyl-1H-pyrazole-5-carboxamide]
- IC50 [1]: 397 nM
- IC50 [2]: 80.6 nM
